Assay results published in patent US20050037446A1, “Agents that recognize src when phosphorylated at serine 17” (priority 2001, published 2005).

Columns and labels:
Assay type in all cases: cell-based
[1] = system: Rap1; assay: Rap1 activation affinity assay, Hek293 cells; conditions: 10 μM; for Effect of inhibitor on isoproterenol's activation of endogenous Rap1: 20 minutes
Procedure: The Rap1 activation affinity assay was performed as follows. A GST fusion protein of the Rap1-binding domain of RalGDS (GST-RalGDS, Dr. Bos, Utrecht University, The Netherlands) was expressed in E. coli following induction by isopropyl-1thio-β-D-galactopyranoside. Active Rap1 was isolated as previously described (Franke et al., EMBO J. 16:252-9, 1997). Briefly, equivalent amounts of supernatants (500 μg) were incubated with GST-RalGDS-Rap1 binding domain coupled to glutathione beads. Following a one hour incubation at 4° C., beads were pelleted and rinsed threes times with ice-cold lysis buffer. The protein was eluted from the beads using 2× Laemmli buffer and applied to a 12% SDS-polyacrylamide gel. Proteins were tansferred to PVDF membrane (Millipore Corporation, Bedford, Mass.), blocked in 5% milk for one hour and, probed with either α-Rap1/Krev-1 (Santa Cruz Biotechnology Inc., Santa Cruz, Calif.) or Flag antibody (Sigma, St Louis, Mo.) overnight at 4° C., followed by an HRP-conjugated anti-rabbit secondary antibody (or anti-mouse secondary for anti-Flag western blots). Proteins were detected using enhanced chemiluminescence.
Hek293 cells (ATCC) were cultured in DMEM plus 10% fetal calf serum, penicillin/streptomycin, and L-glutamine at 37° C. in 5% CO2. Cells were maintained in serum-free DMEM for 16 hours at 37° C. in 5% CO2 prior to treatment with H89 (10 μM) or PP2 (10 μM) for 20 minutes, and then treated with isoproterenol (10 μM) for 5 minutes. Cell lysates were prepared, and a Rap1 activation affinity assay performed as described in Example 1. […] This activation required Src family kinases (SFKs) as it was blocked by the inhibitor PP2.
The mechanism of ERK activation by isoproterenol in Hek293 cells was determined as follows. Hek293 cells were transfected with Flag-Rap1 along with pcDNA3, SrcS17A, SrcS17D, or SrcWT as described above. […]

[2] = system: complex including C3G, Crk-L, and Cb1; assay: Cb1/Crk-L/C3G complex formation (myc-Cb1 immunoprecipitation), NIH3T3 cells
Source text: To determine if Cb1 forms part of a complex, cells were stimulated with Forskolin in the presence or absence of H89 or PP2 and lysates generated as described above. Myc-Cb1 was immunoprecipitated from treated cells and the pellets analyzed by Western blot using antibodies specific for Crk-L and C3G. Total cell lysates were examined for myc-Cb1 by Western blot using a myc antibody (Santa Cruz Biotechnology Inc.). NIH3T3 cells express Crk-L, an isoform of Crk that is constitutively bound to C3G.

[3] = system: Rap1; assay: Rap1 activation affinity assay (GST-RalGDS pull-down), NIH3T3 cells
Procedure: NIH3T3 cells (American Type Culture Collection, ATCC, Manassas, Va.) were cultured in Dulbecco-Modified Eagle Medium (DMEM) plus 10% fetal calf serum, penicillin/streptomycin, and L-glutamine at 37° C. in 5% CO2. Cells were maintained in serum-free DMEM for 16 hours at 37° C. in 5% CO2 prior to treatment. NIH3T3 cells were trasfected with Flag-Rap1 (see Vossler et al., Cell, 89:73-82, 1997) or stimulated with Forskolin (10 μM, Cal Biochem, Riverside, Calif.) for five minutes. Forskolin treated cells received either a pretreatment or post-treatment with 10 μM N-[2(Bromocimamylamino) ethyl]-5-isoquinolinesulfonamide (H89) (Cal Biochem, Riverside, Calif.) for 20 minutes.
Cells were co-transfected with Flag-Rap1 at seventy to eighty percent confluency with the cDNA using a Lipofectamine 2000 kit (Gibco BRL, Rockville, Md.) according to the manufacturer's instructions. The control vector, pcDNA3 (Invitrogen Corp.), was included in each set of transfections to assure that each plate received the same amount of DNA. Following transfection, cells were allowed to recover in serum containing media for 24 hours. Cells were then starved overnight in serum-free DMEM before treatment and lysis.
After treatment, cells were lysed in ice-cold lysis buffer (50 mM Tris-HCL (pH 8.0), 10% glycerol, 1% nonidet P40, 200 mM NaCl, 2.5 mM MgCl2, 1 mM phenylmethylsulfonyl fluoride, 1 μM leupeptin, 10 μln soybean trypsin inhibitor, 10 mM NaF, 0.1 μM aprotinin, and 1 mM NaVO4). Nuclei and cytoskeleton were removed from equivalent amounts of lysate by centrifugation at 5,000 rpm for five minutes. The supernatant was centrifuged at 100,000×g for one hour at 4° C. and, the resultant membrane was resuspended in cold lysis buffer. Aliquots of the membrane fraction were analyzed for the presence of C3G by Western blotting. The cytosolic or membrane fractions of treated or untreated cells were mixed with equivalent amounts of lysates from untreated Flag-Rap1 transfected cells. The mixture was incubated at 37° C. for five minutes and equal amounts of lysate were analyzed using the Rap1 activation assay to monitor Flag-Rap 1 activation by Gst-RalGDS.
The Rap1 activation affinity assay was performed as follows. A GST fusion protein of the Rap1-binding domain of RalGDS (GST-RalGDS, Dr. Bos, Utrecht University, The Netherlands) was expressed in E. coli following induction by isopropyl-1thio-β-D-galactopyranoside. Active Rap1 was isolated as previously described (Franke et al., EMBO J. 16:252-9, 1997). Briefly, equivalent amounts of supernatants (500 μg) were incubated with GST-RalGDS-Rap1 binding domain coupled to glutathione beads. Following a one hour incubation at 4° C., beads were pelleted and rinsed threes times with ice-cold lysis buffer. […] Proteins were detected using enhanced chemiluminescence.

| SMILES | Effect of inhibitor on isoproterenol's activation of endogenous Rap1 [1] | Effect on Forskolin-stimulated C3G/Crk-L/Cb1 complex formation [2] | Effect on Forskolin activation of Flag-Rap1 in trans ([3]; added ten minutes after Forskolin) | Effect on Forskolin activation of Flag-Rap1 in trans ([3]; pretreatment, 10 μM, 20 minutes) | Activation of endogenous Rap1 ([1]; 5 minutes) | Activation of endogenous Rap1 ([3]; NIH3T3 cells, 10 μM, five minutes) |
| --- | --- | --- | --- | --- | --- | --- |
| O=S(=O)(NCCNC/C=C/c1ccc(Br)cc1)c1cccc2cnccc12 [H89, N-[2(Bromocimamylamino)ethyl]-5-isoquinolinesulfonamide] | PKA-dependent | blocked | still able to activate Flag-Rap1 in trans | blocked | – | – |
| CC(C)(C)n1nc(-c2ccc(Cl)cc2)c2c(N)ncnc21 [PP2, 4-amino-5-(4-chlorophenyl)-7-(t-butyl)pyazolo[3,4-d]pyrimidine] | blocked | blocked | – | – | – | – |
| CC(C)NCC(O)c1ccc(O)c(O)c1 (centres unmarked) [isoproterenol] | – | – | – | – | activated endogenous Rap1 | activated Rap1 |
